PubChem BioAssay AID1963831 (Molecular Pharmacology Branch, DTP, NCI, 2024)
Values joined by “and” are separate entries in the source; they are usually repeats but may differ in a detail not shown here. Equal entries are not always repeated.

Test system: 889142-216-R-J1-PDC complex spheroid viability
Assay: Anticancer human tumor 889142-216-R-J1-PDC patient-derived bladder carcinoma cell line growth inhibition [POLQ]
Conditions: for viability, T/C: stronger effect = lower value; for IC50: curve of compound
Procedure: Multicellular complex tumor spheroid response to Polymerase (POL) inhibitors (novobiocin, ART-558, RP6685) in combination with a variety of drugs and investigational agents in selected tumor cell lines
The POL inhibitors (novobiocin, ART-558, and RP6685) were evaluated both individually and in combination with standard of care and investigational anticancer small molecules within a complex spheroid model of solid tumors. . Complex spheroids include a stromal component modeled by human endothelial cells (HUVEC) and fibroblasts modeled by human mesenchymal stem cells (MSCs). The concentration ranges selected for each drug and investigational agent were based upon clinically achievable concentrations if the clinical Cmax of the agent was known.
Compounds. The drugs and investigational agents: novobiocin (NSC847541), ART-558 (NSC835418), RP-6685 (NSC848927), peposertib (NSC802822), ceralasertib (NSC780249), elimusertib (NSC800525), camonsertib (NSC841442), AZD-1390 (NSC803789), olaparib (NSC753686), talazoparib (NSC767125), rucaparib (NSC756644), sotorasib (NSC818433), MRTX-1133 (NSC836407), SN-38 (NSC673596), topotecan (NSC609699), epotoside (NSC141540), doxorubicin (NSC123127), gemcitabine (NSC613327), 5-fluorouracil (NSC19893), paclitaxel (NSC125973), vemurafenib (NSC761431), MSA-2 (NSC828583), SN-011 (NSC837082), adavosertib (NSC754352), prexasertib (NSC758257), carboplatin (NSC241240) and oxaliplatin (NSC266046), were obtained from the National Cancer Institute (NCI) Developmental Therapeutics Program Chemical Repository (21). The FDA-approved anticancer drug set is available from the Developmental Therapeutics Program at https://dtp.cancer.gov/organization/dscb/obtaining/. […] The stock solutions were prepared in dimethyl sulfoxide (DMSO, Sigma-Aldrich, St. Louis, MO, cat. D2650), except for the platinum compounds which were prepared in saline (Quality Biological, Gaithersburg, MD, cat. 114-055-101), at 800-fold the tested concentration and stored at -70 degrees C prior to their use. All drugs and investigational agents were tested over a range starting from a high concentration at or near the clinical Cmax and decreasing in half-log increments. If the clinical Cmax for an agent had not been determined, the highest concentration tested was 10 microM, except for SN-38, which was tested at a high concentration of 1 microM.
Cell Culture. All cells were maintained in an incubator at 37 degrees C and 5% CO2 with 95% humidity. The PDC lines were cultured according to standard operating procedures established by the NCI PDMR (https://pdmr.cancer.gov). Table 3 of the manuscript, lists the cell lines along with the number of the three cell types plated to form the mct-spheroids and media for tumor cell growth. After thawing, all PDC lines, except 997537-175-T-J1-PDC and 415267-285-R-J2-PDC, were cultured in Matrigel-coated flasks prepared with a working solution of 1X Ham's F-12 nutrient mix, without supplementation (Thermo Fisher Scientific, cat. 11765054), 100 U/mL penicillin-streptomycin (Thermo Fisher Scientific, cat. 15140122), and 2.5% Matrigel (Corning Inc., Corning, NY, cat. 354248) for the first three passages. The two PDC lines 997537-175-T-J1-PDC and 415267-285-R-J2-PDC were cultured on uncoated flasks. The 857933-349-R-J2-PDC line was cultured in 6C/Colon 1B media containing advanced DMEM/F-12 (Thermo Fisher Scientific, cat. 12634028), 10 mM HEPES (Thermo Fisher Scientific, cat. 15630080), 1X GlutaMAX supplement (Thermo Fisher Scientific, cat. 35050061), 0.1 mg/mL primocin (InvivoGen, San Diego, CA, cat. ant-pm-2), 10% defined fetal bovine serum, heat inactivated (HyClone Laboratories Inc., Logan, UT, cat. SH30070.03HI), 50% L-WRN conditioned media (ATCC, cat. CRL-3276), 1.25 mM N-Acetyl-L-cysteine (Sigma-Aldrich, cat. A9165), 10 mM nicotinamide (Sigma-Aldrich, cat. N0636), 1X B-27 supplement (Thermo Fisher Scientific, cat. 17504044), 1X N-2 supplement (Thermo Fisher Scientific, cat. […]
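Further: spheroids exposed to compounds for seven days.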
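Wherever viability, T/C is given: 100% = DMSO vehicle control viability.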

Structure (SMILES)	viability, T/C (compound 0.0316 µM)	viability, T/C (compound 0.1 µM)	viability, T/C (compound 0.316 µM)	viability, T/C (compound 1 µM)	viability, T/C (compound 3.16 µM)	viability, T/C (compound 10 µM)	IC50	viability, T/C (compound 0.00316 µM)	viability, T/C (compound 0.01 µM)	viability, T/C (compound 0.00949 µM)	viability, T/C (compound 0.03 µM)	viability, T/C (compound 0.0949 µM)	viability, T/C (compound 0.3 µM)	viability, T/C (compound 0.949 µM)	viability, T/C (compound 3 µM)	viability, T/C (compound 0.000316 µM)	viability, T/C (compound 0.001 µM)
C#Cc1c(F)ccc2cc(O)cc(-c3ncc4c(N5CC6CCC(C5)N6)nc(OCC56CCCN5CC(F)C6)nc4c3F)c12 (stereo not given)	97.4% and 84.7% and 98.7%	87.7% and 85.2% and 98.1%	79.3% and 79.1% and 79.6%	67.5% and 74.8% and 66.9%	80.7% and 73.1% and 71.4%	37.6% and 42.5% and 32%	6760 nM and 7470 nM and 4990 nM										
C=CC(=O)N1CCN(c2nc(=O)n(-c3c(C)ccnc3C(C)C)c3nc(-c4c(O)cccc4F)c(F)cc23)C(C)C1 (stereo not given)	85.5% and 87.6% and 108%	90.5% and 106% and 83.7%	123% and 117% and 93.5%	92.1% and 126% and 116%	150% and 108% and 109%	106% and 105% and 97.8%	> 10000 nM										
C=CCn1c(=O)c2cnc(Nc3ccc(N4CCN(C)CC4)cc3)nc2n1-c1cccc(C(C)(C)O)n1	97.2% and 110% and 104%	80.1% and 100% and 88.6%	57.7% and 70.7% and 79.8%	54.2% and 67% and 62.5%			> 1000 nM	97.5% and 109% and 88.1%	87.6% and 92.1% and 104%								
CC(=O)O[C@H]1C(=O)[C@@]2(C)[C@H]([C@H](OC(=O)c3ccccc3)[C@]3(O)C[C@H](OC(=O)[C@H](O)[C@@H](NC(=O)c4ccccc4)c4ccccc4)C(C)=C1C3(C)C)[C@]1(OC(C)=O)CO[C@@H]1C[C@@H]2O										51.9% and 53.3% and 40.6%	51% and 60.1% and 33.6%	54.7% and 51.5% and 37.1%	52.4% and 50.6% and 36.6%	43.7% and 49.6% and 35.6%	49.5% and 56.1% and 39%		
CC(C)n1c(=O)n(C)c2cnc3cc(F)c(-c4ccc(OCCCN5CCCCC5)nc4)cc3c21	78.6% and 82.9% and 98.3%	101% and 92.7% and 85.2%	67.3% and 87% and 77.9%	63.5% and 85.9% and 71.9%	56.2% and 77.5% and 64.2%	17.9% and 67.2% and 43.8%	3190 nM and > 10000 nM and 7640 nM										
CC1COCCN1c1cc(-c2ccnn2C)c2ccnc(-c3ccn[nH]3)c2n1 (stereo not given)	69.8% and 79.1% and 76.9%	54.8% and 52.9% and 67.8%	47% and 40.5% and 47.4%	38.7% and 46.3% and 39.9%	32.2% and 36.3% and 36.2%	28.1% and 25% and 30.5%	206 nM and 182 nM and 308 nM										
CC1COCCN1c1cc(C2(O)CC3CCC(C2)O3)c2cnn(-c3ccn[nH]3)c2n1 (stereo not given)	57.4% and 69.5% and 69.9%	44% and 49.5% and 54.2%	43.3% and 37.3% and 38.3%	32.6% and 33.5% and 34.5%	26% and 30.2% and 30.3%	14.7% and 11.1% and 17.2%	75.7 nM and 135 nM and 153 nM										
CC1COCCN1c1cc(C2(S(C)(=N)=O)CC2)nc(-c2ccnc3[nH]ccc23)n1 (stereo not given)	125% and 90% and 99.5%	92.6% and 98.3% and 102%	98.3% and 75.8% and 74.6%	53.5% and 71.3% and 53.6%	51.8% and 48.8% and 44.5%	45.6% and 58% and 46.8%	3750 nM and > 10000 nM and 1280 nM										
CCCS(=O)(=O)Nc1ccc(F)c(C(=O)c2c[nH]c3ncc(-c4ccc(Cl)cc4)cc23)c1F	74.9% and 85.2% and 120%	89.7% and 99.9% and 114%	84.1% and 105% and 81.2%	96.2% and 106% and 87.5%	62.4% and 72.5% and 71.5%	50% and 43.1% and 36.3%	> 10000 nM and 7630 nM and 6630 nM										
CC[C@@]1(O)C(=O)OCc2c1cc1n(c2=O)Cc2cc3c(CN(C)C)c(O)ccc3nc2-1	60.9% and 63.7%	60.2% and 49.3%					> 100 nM and 94.7 nM	103% and 85.1%	91.3% and 89.6%							110% and 87.5%	96.5% and 89.5%
CCc1c2c(nc3ccc(O)cc13)-c1cc3c(c(=O)n1C2)COC(=O)[C@]3(O)CC	40.2% and 47.8%	33.7% and 31.8%	29.5% and 27.7%	11.7% and 9.45%			10.9 nM and 17.3 nM	58.4% and 64.9%	50.7% and 50.6%								
CCc1cc2c(N3CCc4c(cc(Cn5ccnc5)cc4-c4cn(C)nc4C(F)(F)F)C3=O)cc(C)nc2c(OC)n1	103% and 102% and 111%	116% and 114% and 108%	123% and 119% (2×)	132% and 112% and 96.6%	118% and 106% and 84.9%	84.3% and 82.2% and 71.1%	> 10000 nM										
CCc1cc2c(N3CCc4c(cc(Cn5ccnc5)cc4-c4cn(C)nc4C(F)(F)F)C3=O)ccnc2c(OC)n1	127% and 103% and 138%	115% and 101% and 105%	123% and 106% (2×)	116% and 126% and 105%	116% and 111% and 93.8%	83.1% and 86.1% and 71.5%	> 10000 nM										
